SMILES strings stand for the structures.

Test [1] concerns MV4-11 cells (FLT3-ITD+/+). The test is described as follows: Inhibition of cell proliferation by MTT experiment, MV4-11. In kind it is cell-based, human. Particulars: Homo sapiens, MV4-11, 72 h, read-out: IC50 value on cell proliferation inhibition, MV4-11 FLT3-ITD+/+. Summed up:
(§1)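 MTT assay in MV4-11, MOLM-13 (FLT3-ITD) and SET-2 (JAK2 V617F) cells at 10,000–15,000 cells/well in IMDM with 10% FBS. Cells are exposed to compound for 72 h at 37 °C, then to MTT for 1–3 h. IC50 is fitted from inhibition rates across concentrations.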

For test [2], the system named is MOLM-13 cells (FLT3-ITD-/+). The test is described as follows: Inhibition of cell proliferation by MTT experiment, MOLM-13. It is filed as cell-based, human. Particulars: Homo sapiens, MOLM-13, 72 h, read-out: IC50 value on cell proliferation inhibition, MOLM-13 FLT3-ITD-/+. Summed up: as §1
A further test deals with T1, JAK2 (Homo sapiens, UniProt O60674).
T1 construct: purchased Eurofins
The test is described as follows: In vitro kinase activity experiment, JAK2. It is filed as biochemical. Particulars: inhibition rate of enzyme at 500 nM; measured by Eurofins. Summed up: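 Reactions began on MgATP addition after the kinase, substrate, γ33P-ATP, 10 mM magnesium acetate and compound series were mixed in MOPS buffer pH 7.0 with EDTA and MnCl2. After 40 min at room temperature, phosphate quench, filter-mat capture and washing, incorporated 33P was measured by scintillation counting.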

The next test concerns the target T2, JAK1 (Homo sapiens, UniProt P23458).
T2 construct: purchased Eurofins
The test is described as follows: In vitro kinase activity experiment, JAK1. It is filed as biochemical. As to the method: (§2) Buffer solution ([…], pH 7.0, 0.2 mm EDTA, 10 mM mncl2), kinase to be tested, substrate of kinase to be tested, 10 mM magnesium acetate and γ33P-ATP solution, and compounds with different concentrations were added to a reaction tube in turn, then MgATP was added to initiate the enzyme reaction process, and incubated at room temperature for 40 min. Then, the reaction was terminated with 5 μl of […], and 10 μl of the reaction solution was titrated onto the Filtermat A membrane, washed with 75 mM phosphate solution for three times, each time for 5 min., and then washed with methanol once. Finally, the Filtermat A membrane was dried and the scintillation count was carried out.

The target in the next test is T3, JAK3 (Homo sapiens, UniProt P52333).
T3 construct: purchased Eurofins
T3 sequence (P52333 1-1124): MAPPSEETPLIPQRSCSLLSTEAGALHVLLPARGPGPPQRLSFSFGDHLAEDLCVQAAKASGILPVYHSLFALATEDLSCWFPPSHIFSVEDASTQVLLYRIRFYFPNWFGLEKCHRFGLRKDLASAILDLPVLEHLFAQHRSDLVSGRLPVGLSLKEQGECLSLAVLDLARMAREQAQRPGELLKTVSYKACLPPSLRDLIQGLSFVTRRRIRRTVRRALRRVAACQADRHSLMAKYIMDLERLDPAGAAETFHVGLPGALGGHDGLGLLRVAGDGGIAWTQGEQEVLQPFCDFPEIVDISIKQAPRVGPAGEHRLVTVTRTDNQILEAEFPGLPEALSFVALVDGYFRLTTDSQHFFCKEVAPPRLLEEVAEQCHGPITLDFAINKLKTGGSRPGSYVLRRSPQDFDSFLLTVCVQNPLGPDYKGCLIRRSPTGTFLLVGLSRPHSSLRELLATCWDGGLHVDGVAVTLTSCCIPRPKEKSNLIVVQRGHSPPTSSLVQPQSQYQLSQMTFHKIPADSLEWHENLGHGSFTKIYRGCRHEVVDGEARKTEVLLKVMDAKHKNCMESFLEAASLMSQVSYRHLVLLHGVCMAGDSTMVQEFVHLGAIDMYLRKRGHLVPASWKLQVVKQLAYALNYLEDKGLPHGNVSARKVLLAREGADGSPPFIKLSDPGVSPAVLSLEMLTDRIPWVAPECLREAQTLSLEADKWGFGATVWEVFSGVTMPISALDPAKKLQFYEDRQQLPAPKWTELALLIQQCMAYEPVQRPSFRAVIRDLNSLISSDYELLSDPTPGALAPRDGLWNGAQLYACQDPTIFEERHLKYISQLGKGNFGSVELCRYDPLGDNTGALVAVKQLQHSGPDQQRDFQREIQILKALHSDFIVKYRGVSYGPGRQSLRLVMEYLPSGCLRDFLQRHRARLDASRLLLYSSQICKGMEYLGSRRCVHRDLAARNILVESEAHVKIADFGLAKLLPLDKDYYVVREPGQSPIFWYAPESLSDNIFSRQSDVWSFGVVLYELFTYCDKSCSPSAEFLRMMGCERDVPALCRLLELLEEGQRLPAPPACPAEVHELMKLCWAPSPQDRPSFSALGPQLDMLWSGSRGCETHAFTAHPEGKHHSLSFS
The test is described as follows: In vitro kinase activity experiment, JAK3. It is filed as biochemical. As for the experimental part:
as §2

Test [3] has as its system JAK2/FLT3 signaling pathway related proteins. The test is described as follows: Immunoblot experiment on JAK2/FLT3 signaling pathway related proteins in MV4-11 and SET-2 cells. In kind it is cell-based. Particulars: different concentrations. As for the experimental part:
The cells were subjected to SDS-PAGE gel electrophoresis with 8%-16% gradient gels, and constant flow membrane was carried out. The cells were blocked with 5% skim milk, and the primary antibody FLT3 (CST, 3462S), […] (CST, 3464S), STAT5 (CST, 9363S), […] (Abcam, ab32364), JAK2 (Proteintech, 02802), p-JAK2 (Abcam, ab32101), JAK1 (Santa Cruz Biotechnology, sc-136225), […] (Santa Cruz Biotechnology, sc-101716), GAPDH (Abways, AB0037), Rb (Abways, CY5661), […] (Abways, CY5260) was incubated. The next day, the cells were washed with PBS/T for three times, horseradish enzyme-labeled goat anti-mouse second antibody (Abways, AB0102) and horseradish enzyme-labeled goat anti-rabbit second antibody (Abways, AB0101) were incubated at room temperature, then the cells were washed with PBS/T for three times, and developed by the addition of the ECL chemiluminescent substrate.
Background: Immunoblotting shows a protein as a band on a membrane.

T1 sequence (O60674 whole entry): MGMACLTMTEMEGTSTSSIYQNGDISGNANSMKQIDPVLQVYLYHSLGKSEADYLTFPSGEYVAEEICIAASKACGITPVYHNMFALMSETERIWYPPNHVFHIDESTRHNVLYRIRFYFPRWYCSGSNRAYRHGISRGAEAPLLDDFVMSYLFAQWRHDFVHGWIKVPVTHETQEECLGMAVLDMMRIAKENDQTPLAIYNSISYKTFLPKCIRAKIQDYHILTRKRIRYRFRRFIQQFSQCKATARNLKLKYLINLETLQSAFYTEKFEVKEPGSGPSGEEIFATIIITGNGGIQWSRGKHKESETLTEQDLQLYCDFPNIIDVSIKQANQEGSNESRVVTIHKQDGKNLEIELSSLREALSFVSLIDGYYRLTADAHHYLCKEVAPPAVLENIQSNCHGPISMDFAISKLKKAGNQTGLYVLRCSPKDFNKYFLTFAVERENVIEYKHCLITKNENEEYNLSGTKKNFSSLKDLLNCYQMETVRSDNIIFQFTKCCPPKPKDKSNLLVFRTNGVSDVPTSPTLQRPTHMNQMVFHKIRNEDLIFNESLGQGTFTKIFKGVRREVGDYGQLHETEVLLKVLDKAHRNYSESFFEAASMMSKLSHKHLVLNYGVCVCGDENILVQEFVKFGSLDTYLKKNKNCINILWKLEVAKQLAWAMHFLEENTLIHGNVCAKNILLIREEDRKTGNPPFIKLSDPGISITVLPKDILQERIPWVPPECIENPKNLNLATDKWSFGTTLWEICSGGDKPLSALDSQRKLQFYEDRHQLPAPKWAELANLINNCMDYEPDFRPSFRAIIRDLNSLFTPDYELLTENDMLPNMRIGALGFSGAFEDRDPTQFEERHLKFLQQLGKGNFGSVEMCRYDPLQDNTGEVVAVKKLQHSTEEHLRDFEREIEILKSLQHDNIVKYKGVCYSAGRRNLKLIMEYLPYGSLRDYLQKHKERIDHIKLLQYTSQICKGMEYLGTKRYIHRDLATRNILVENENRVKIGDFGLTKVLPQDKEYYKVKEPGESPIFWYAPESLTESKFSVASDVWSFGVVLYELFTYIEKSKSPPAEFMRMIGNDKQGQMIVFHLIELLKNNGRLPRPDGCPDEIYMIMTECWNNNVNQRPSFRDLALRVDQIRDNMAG
T2 sequence (P23458 whole entry): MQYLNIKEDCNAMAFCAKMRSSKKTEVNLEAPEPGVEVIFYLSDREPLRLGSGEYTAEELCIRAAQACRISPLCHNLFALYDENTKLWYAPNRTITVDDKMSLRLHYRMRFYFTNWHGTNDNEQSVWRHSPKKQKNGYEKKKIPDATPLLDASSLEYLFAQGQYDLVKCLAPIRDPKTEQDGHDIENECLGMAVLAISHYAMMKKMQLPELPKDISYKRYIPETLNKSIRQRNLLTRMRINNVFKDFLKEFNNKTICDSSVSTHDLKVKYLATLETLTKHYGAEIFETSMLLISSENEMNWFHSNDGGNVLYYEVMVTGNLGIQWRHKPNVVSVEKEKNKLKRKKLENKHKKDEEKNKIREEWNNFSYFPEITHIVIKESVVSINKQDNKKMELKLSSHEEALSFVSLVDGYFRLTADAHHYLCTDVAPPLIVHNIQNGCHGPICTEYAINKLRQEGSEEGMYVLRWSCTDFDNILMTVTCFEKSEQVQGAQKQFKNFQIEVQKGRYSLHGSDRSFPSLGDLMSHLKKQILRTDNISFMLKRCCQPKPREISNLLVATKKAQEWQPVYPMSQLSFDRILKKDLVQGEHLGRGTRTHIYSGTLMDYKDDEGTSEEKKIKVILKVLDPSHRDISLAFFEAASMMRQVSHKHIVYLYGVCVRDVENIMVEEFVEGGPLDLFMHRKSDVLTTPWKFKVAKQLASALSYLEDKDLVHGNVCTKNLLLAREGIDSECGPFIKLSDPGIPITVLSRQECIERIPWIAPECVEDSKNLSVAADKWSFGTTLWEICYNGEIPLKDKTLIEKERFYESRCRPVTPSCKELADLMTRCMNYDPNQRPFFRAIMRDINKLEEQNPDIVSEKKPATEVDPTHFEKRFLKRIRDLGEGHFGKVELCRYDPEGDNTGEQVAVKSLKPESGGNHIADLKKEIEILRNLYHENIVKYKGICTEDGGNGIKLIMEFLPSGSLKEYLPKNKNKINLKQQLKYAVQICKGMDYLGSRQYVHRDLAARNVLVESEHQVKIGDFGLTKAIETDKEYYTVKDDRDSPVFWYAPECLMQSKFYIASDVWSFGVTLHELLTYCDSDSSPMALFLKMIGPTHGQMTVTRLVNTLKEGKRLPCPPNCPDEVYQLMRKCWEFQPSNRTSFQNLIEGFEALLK

Take `Cc1cnc(Nc2ccc(N3CCC(N(C)CCO)CC3)c(F)c2)nc1-c1cnn(C(C)C)c1` [CLJ-44, 5-methyl-N-(3-fluoro-4-(4-N-hydroxyethyl-4-N-methylaminopiperidine-1-yl)phenyl)-4-(1-isopropyl-1H-pyrazole-4-yl) pyrimidine-2-amine]: the IC50 was 1 to 10 nM in test [1], 10 to 100 nM in test [2], 37 nM against JAK1 and 46 nM against JAK3. Besides, the “Kinase activity @ 500 nM (%) JAK2” value at JAK2 was determined as 100%. The “autophosphorylation of JAK2/FLT3 (immunoblot)” value in test [3] was “significantly inhibited the autophosphorylation of JAK2/FLT3 in a dose-dependent relationship”. Also, the “effect on JAK subtype JAK1 (immunoblot)” value in test [3] was “weak effect”.
